From patent publication US12364679B2, “Esters for treatment of ocular inflammatory conditions” (Johnson & Johnson Vision Care, Inc., priority 2011, dated 2025) come the findings set out here.

In data set [1] the test system is corneal epithelium tissue construct (HCE construct, SkinEthic). Description: Corneal epithelial tissue model, cell viability (MTT), 8 hour exposure. The note with it: 0.001 and 0.01%.
Experimental: (§1) The model uses a corneal epithelium tissue construct (e.g., HCE construct manufactured by SkinEthic).
(§2) The esterified anti-inflammatory lipid mediator dose-responses were then evaluated in the construct, whereby 30 microliters of the rewetting drop was topically applied to the tissue for 8 or 24 hours, and cell viability was then quantified along with a subset of selected potential biomarkers within the tissue culture media.
Data set [2] can be described thus: Uptake by narafilcon B contact lenses from propylene glycol solution, gas chromatography. The format is physicochemical. The note with it: for ALA-EE uptake: narafilcon B. The protocol: The alpha linolenic acid ethyl ester (ALA-EE) was dissolved in propylene glycol (PG) at concentrations of 0.05 and 0.5%, and silicon hydrogel lenses (Narafilcon B lenses (ACUVUE® TrueEye®)) were hydrated or soaked in the ALA-EE-containing propylene glycol solution for one hour at room temperature, followed by rinsing in DI water and repackaging of lenses in the packing solution. The lenses were packaging in borate buffer packing solution with 50 ppm methyl cellulose and autoclaved at 121° C. for 19 minutes. ALA-EE was quantified by gas chromatography.

Data set [3] can be described thus: Uptake by senofilcon contact lenses from IPA solution, gas chromatography. Format: physicochemical. Here is the method: ALA-EE was dissolved in isopropanol (IPA) at the concentration of 0.05 or 0.5%. Silicone hydrogel contact lenses (senofilcon, commercially available as ACUVUE® OASYS® with […]® Plus lenses) were then allowed to soak in the ALA-EE-containing IPA for up to 1 hour at room temperature, followed by soaking in ALA-EE containing IPA/packing solution (70% IPA/30% packing solution) for up to 1 hour, rinsing in packing solution, and packaging of lenses in the packing solution. ALA-EE uptake by the contact lenses was quantified by gas chromatography.
A comparative silicone hydrogel contact lens that incorporated alpha linolenic acid (ALA), rather than the ester, was prepared following the same protocol as Example 6.

Data set [4] deals with corneal epithelium tissue construct (HCE construct, SkinEthic). The note with it: human, 8 h.
Experimental: as §1, §2
Data set [5] relates to transepithelial permeability in vitro model. The data set can be described thus: Transepithelial permeability in vitro model (TEP test), fluorescein leakage. Format: cell-based. The note with it: 0.2%, relative to vehicle/controls. Here is the method:
The compositions of Examples 1A and 1B and Comparative Example 2A were tested in vitro as follows. A transepithelial permeability in vitro model (TEP test) was used to assess fluorescein leakage (or increased transepithelial permeability) with the free acid in comparison with the ester form of the alpha linolenic acid.

For data set [6], the system named is "contact lens induced dry eye" subjects. Description: Comfort upon instillation to the eye (non-dispensing clinical studies). The note with it: human, in vivo. Here is the method:
Preliminary non-dispensing clinical studies were conducted to further assess the use of omega-three fatty acid compositions. A 0.05 wt. % concentration ester version of an omega-three fatty acid was instilled on three “contact lens induced dry eye” subjects (each with at least one sign and one symptom of contact lens induced dry eye) without any acute ocular discomfort or physiological findings. Similarly, a 0.2 wt. % concentration ester version of the omega-three fatty acid was instilled on four “contact lens induced dry eye” subjects without any acute ocular discomfort or physiological findings.

Regarding benzalkonium chloride [BAK], in data set [1], the “cytotoxicity in the construct” value was “non-cytotoxic”.

`CC/C=C\C/C=C\C/C=C\CCCCCCCC(=O)OCC` [ALA-EE, ethyl linolenate]: in data set [2] (narafilcon B lens, PG loading, autoclaved 121° C.), the “hydrolysis of the ester to the acid” value is “no detectable hydrolysis”. Moreover, the ALA-EE uptake in data set [2] (0.05% ALA-EE solution) came out at 91 micrograms per lens; in data set [2] (0.5% ALA-EE solution), 721 micrograms per lens; in data set [3] (0.05% ALA-EE solution in IPA), 54 micrograms per lens; in data set [3] (0.5% ALA-EE solution in IPA), 611 micrograms per lens. In addition, the “hydrolysis of ester to free acid form” value in data set [3] (senofilcon lens loading from IPA) is “did not hydrolyze to the free acid form”. The “impact on the in vitro endpoint, times less than linolenic acid (ALA)” value in data set [4] was 10 times. Moreover, in data set [5], the “effect on transepithelial permeability / fluorescein leakage” value is “behaved similarly to the vehicle”. For the same compound, in data set [6], the “response on the eye (acute ocular discomfort)” value is “lack of acute ocular discomfort”.

Consider `CC/C=C\C/C=C\C/C=C\CCCCCCCC(=O)O` [ALA, alpha-linolenic acid, reference compound], for which the “uptake of ALA by the contact lenses” value was found to be 23 micrograms per lens in data set [3] (0.05% ALA solution in IPA) and 300 micrograms per lens in data set [3] (0.5% ALA solution in IPA). For the same compound, the “effect on transepithelial permeability / fluorescein leakage” value in data set [5] is listed as “significant increase in fluorescein leakage”.
